In ChEMBL document CHEMBL3400097, “Effect of arginine methylation on the RNA recognition and cellular uptake of Tat-derived peptides” (Bioorg Med Chem, 2015):

What was measured:
Nucleic Acid = experiment: Binding affinity to HIV TAR RNA by electrophoretic mobility shift assay in presence of Escherichia coli tRNA; format: nucleic-acid assay, Human immunodeficiency virus
Jurkat = experiment: Cytotoxicity against human Jurkat cells assessed as cell viability at 120 uM after 4 hrs by WST-1 assay; format: cell-based

Compound	Kd (Nucleic Acid) [nM]	Activity (Jurkat)
CC(=O)N[C@@H](Cc1ccc(O)cc1)C(=O)NCC(=O)N[C@@H](CCCNC(=N)N)C(=O)N[C@@H](CCCCN)C(=O)N[C@@H](CCCCN)C(=O)N[C@@H](CCCNC(=N)N)C(=O)N[C@@H](CCCNC(=N)N)C(=O)N[C@@H](CCC(N)=O)C(=O)N[C@@H](CCCNC(=N)N)C(=O)N[C@@H](CCCNC(=N)N)C(=O)N[C@@H](CCCNC(=N)N)C(N)=O	260	Non-toxic
CNC(=N)NCCC[C@H](NC(=O)CNC(=O)[C@H](Cc1ccc(O)cc1)NC(C)=O)C(=O)N[C@@H](CCCCN)C(=O)N[C@@H](CCCCN)C(=O)N[C@@H](CCCNC(=N)N)C(=O)N[C@@H](CCCNC(=N)N)C(=O)N[C@@H](CCC(N)=O)C(=O)N[C@@H](CCCNC(=N)N)C(=O)N[C@@H](CCCNC(=N)N)C(=O)N[C@@H](CCCNC(=N)N)C(N)=O	285	Non-toxic
CNC(=N)NCCC[C@H](NC(=O)[C@H](CCCCN)NC(=O)[C@H](CCCCN)NC(=O)[C@H](CCCNC(=N)N)NC(=O)CNC(=O)[C@H](Cc1ccc(O)cc1)NC(C)=O)C(=O)N[C@@H](CCCNC(=N)N)C(=O)N[C@@H](CCC(N)=O)C(=O)N[C@@H](CCCNC(=N)N)C(=O)N[C@@H](CCCNC(=N)N)C(=O)N[C@@H](CCCNC(=N)N)C(N)=O	310	Non-toxic
CNC(=N)NCCC[C@H](NC(=O)[C@H](CCCNC(=N)N)NC(=O)[C@H](CCCCN)NC(=O)[C@H](CCCCN)NC(=O)[C@H](CCCNC(=N)N)NC(=O)CNC(=O)[C@H](Cc1ccc(O)cc1)NC(C)=O)C(=O)N[C@@H](CCC(N)=O)C(=O)N[C@@H](CCCNC(=N)N)C(=O)N[C@@H](CCCNC(=N)N)C(=O)N[C@@H](CCCNC(=N)N)C(N)=O	383	Non-toxic
CNC(=N)NCCC[C@H](NC(=O)[C@H](CCC(N)=O)NC(=O)[C@H](CCCNC(=N)N)NC(=O)[C@H](CCCNC(=N)N)NC(=O)[C@H](CCCCN)NC(=O)[C@H](CCCCN)NC(=O)[C@H](CCCNC(=N)N)NC(=O)CNC(=O)[C@H](Cc1ccc(O)cc1)NC(C)=O)C(=O)N[C@@H](CCCNC(=N)N)C(=O)N[C@@H](CCCNC(=N)N)C(N)=O	380	Non-toxic
CNC(=N)NCCC[C@H](NC(=O)[C@H](CCCNC(=N)N)NC(=O)[C@H](CCC(N)=O)NC(=O)[C@H](CCCNC(=N)N)NC(=O)[C@H](CCCNC(=N)N)NC(=O)[C@H](CCCCN)NC(=O)[C@H](CCCCN)NC(=O)[C@H](CCCNC(=N)N)NC(=O)CNC(=O)[C@H](Cc1ccc(O)cc1)NC(C)=O)C(=O)N[C@@H](CCCNC(=N)N)C(N)=O	219	Non-toxic
CNC(=N)NCCC[C@H](NC(=O)[C@H](CCCNC(=N)N)NC(=O)[C@H](CCCNC(=N)N)NC(=O)[C@H](CCC(N)=O)NC(=O)[C@H](CCCNC(=N)N)NC(=O)[C@H](CCCNC(=N)N)NC(=O)[C@H](CCCCN)NC(=O)[C@H](CCCCN)NC(=O)[C@H](CCCNC(=N)N)NC(=O)CNC(=O)[C@H](Cc1ccc(O)cc1)NC(C)=O)C(N)=O	197	Non-toxic
CC(=O)N[C@@H](Cc1ccc(O)cc1)C(=O)NCC(=O)N[C@@H](CCCNC(=N)N(C)C)C(=O)N[C@@H](CCCCN)C(=O)N[C@@H](CCCCN)C(=O)N[C@@H](CCCNC(=N)N)C(=O)N[C@@H](CCCNC(=N)N)C(=O)N[C@@H](CCC(N)=O)C(=O)N[C@@H](CCCNC(=N)N)C(=O)N[C@@H](CCCNC(=N)N)C(=O)N[C@@H](CCCNC(=N)N)C(N)=O	279	Non-toxic
CC(=O)N[C@@H](Cc1ccc(O)cc1)C(=O)NCC(=O)N[C@@H](CCCNC(=N)N)C(=O)N[C@@H](CCCCN)C(=O)N[C@@H](CCCCN)C(=O)N[C@@H](CCCNC(=N)N(C)C)C(=O)N[C@@H](CCCNC(=N)N)C(=O)N[C@@H](CCC(N)=O)C(=O)N[C@@H](CCCNC(=N)N)C(=O)N[C@@H](CCCNC(=N)N)C(=O)N[C@@H](CCCNC(=N)N)C(N)=O	385	Non-toxic
CC(=O)N[C@@H](Cc1ccc(O)cc1)C(=O)NCC(=O)N[C@@H](CCCNC(=N)N)C(=O)N[C@@H](CCCCN)C(=O)N[C@@H](CCCCN)C(=O)N[C@@H](CCCNC(=N)N)C(=O)N[C@@H](CCCNC(=N)N(C)C)C(=O)N[C@@H](CCC(N)=O)C(=O)N[C@@H](CCCNC(=N)N)C(=O)N[C@@H](CCCNC(=N)N)C(=O)N[C@@H](CCCNC(=N)N)C(N)=O	881	Non-toxic
CC(=O)N[C@@H](Cc1ccc(O)cc1)C(=O)NCC(=O)N[C@@H](CCCNC(=N)N)C(=O)N[C@@H](CCCCN)C(=O)N[C@@H](CCCCN)C(=O)N[C@@H](CCCNC(=N)N)C(=O)N[C@@H](CCCNC(=N)N)C(=O)N[C@@H](CCC(N)=O)C(=O)N[C@@H](CCCNC(=N)N(C)C)C(=O)N[C@@H](CCCNC(=N)N)C(=O)N[C@@H](CCCNC(=N)N)C(N)=O	398	Non-toxic
CC(=O)N[C@@H](Cc1ccc(O)cc1)C(=O)NCC(=O)N[C@@H](CCCNC(=N)N)C(=O)N[C@@H](CCCCN)C(=O)N[C@@H](CCCCN)C(=O)N[C@@H](CCCNC(=N)N)C(=O)N[C@@H](CCCNC(=N)N)C(=O)N[C@@H](CCC(N)=O)C(=O)N[C@@H](CCCNC(=N)N)C(=O)N[C@@H](CCCNC(=N)N(C)C)C(=O)N[C@@H](CCCNC(=N)N)C(N)=O	404	Non-toxic
CC(=O)N[C@@H](Cc1ccc(O)cc1)C(=O)NCC(=O)N[C@@H](CCCNC(=N)N)C(=O)N[C@@H](CCCCN)C(=O)N[C@@H](CCCCN)C(=O)N[C@@H](CCCNC(=N)N)C(=O)N[C@@H](CCCNC(=N)N)C(=O)N[C@@H](CCC(N)=O)C(=O)N[C@@H](CCCNC(=N)N)C(=O)N[C@@H](CCCNC(=N)N)C(=O)N[C@@H](CCCNC(=N)N(C)C)C(N)=O	277	Non-toxic
C/N=C(\NC)NCCC[C@H](NC(=O)CNC(=O)[C@H](Cc1ccc(O)cc1)NC(C)=O)C(=O)N[C@@H](CCCCN)C(=O)N[C@@H](CCCCN)C(=O)N[C@@H](CCCNC(=N)N)C(=O)N[C@@H](CCCNC(=N)N)C(=O)N[C@@H](CCC(N)=O)C(=O)N[C@@H](CCCNC(=N)N)C(=O)N[C@@H](CCCNC(=N)N)C(=O)N[C@@H](CCCNC(=N)N)C(N)=O	219	Non-toxic
C/N=C(\NC)NCCC[C@H](NC(=O)[C@H](CCCCN)NC(=O)[C@H](CCCCN)NC(=O)[C@H](CCCNC(=N)N)NC(=O)CNC(=O)[C@H](Cc1ccc(O)cc1)NC(C)=O)C(=O)N[C@@H](CCCNC(=N)N)C(=O)N[C@@H](CCC(N)=O)C(=O)N[C@@H](CCCNC(=N)N)C(=O)N[C@@H](CCCNC(=N)N)C(=O)N[C@@H](CCCNC(=N)N)C(N)=O	328	Non-toxic
C/N=C(\NC)NCCC[C@H](NC(=O)[C@H](CCCNC(=N)N)NC(=O)[C@H](CCCCN)NC(=O)[C@H](CCCCN)NC(=O)[C@H](CCCNC(=N)N)NC(=O)CNC(=O)[C@H](Cc1ccc(O)cc1)NC(C)=O)C(=O)N[C@@H](CCC(N)=O)C(=O)N[C@@H](CCCNC(=N)N)C(=O)N[C@@H](CCCNC(=N)N)C(=O)N[C@@H](CCCNC(=N)N)C(N)=O	576	Non-toxic
C/N=C(\NC)NCCC[C@H](NC(=O)[C@H](CCC(N)=O)NC(=O)[C@H](CCCNC(=N)N)NC(=O)[C@H](CCCNC(=N)N)NC(=O)[C@H](CCCCN)NC(=O)[C@H](CCCCN)NC(=O)[C@H](CCCNC(=N)N)NC(=O)CNC(=O)[C@H](Cc1ccc(O)cc1)NC(C)=O)C(=O)N[C@@H](CCCNC(=N)N)C(=O)N[C@@H](CCCNC(=N)N)C(N)=O	527	Non-toxic
